Data reported in article PMC11928584, “H105A peptide eye drops promote photoreceptor survival in murine and human models of retinal degeneration” (Communications Medicine, 2025).
Where a SMILES comes first, the peptide text is derived from it.

Target: T1, recombinant human PEDF-R[1–288] (Homo sapiens, UniProt Q96AD5)
T1 construct: SUMOstar (N); His tag (N); made in house; host or cells: Escherichia coli Rosetta(DE3), co-transformed with pGro7 (groES-groEL)
T1 sequence (Q96AD5 1-288): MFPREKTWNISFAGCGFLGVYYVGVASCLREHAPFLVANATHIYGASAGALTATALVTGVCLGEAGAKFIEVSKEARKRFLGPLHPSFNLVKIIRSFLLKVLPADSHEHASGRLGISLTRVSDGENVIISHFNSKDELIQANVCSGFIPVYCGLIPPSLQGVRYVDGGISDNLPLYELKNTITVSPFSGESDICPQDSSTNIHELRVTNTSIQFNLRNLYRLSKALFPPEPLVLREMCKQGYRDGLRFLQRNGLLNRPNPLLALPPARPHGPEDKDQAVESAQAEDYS
Assay: Phospholipase A2 activity assay (EnzChek)
Type: biochemical
Conditions: purified recombinant PEDF-R in the presence of peptides
Excerpt: To obtain the PEDF-R protein, the following procedure was followed. For plasmid construction, the plasmid used for expression was pE-SUMOstar-PEDF-R[1–288] C-terminal TwinStrep tagged. This plasmid contained the coding sequence for the human PEDF-R open reading frame between positions 1 and 288. For transformation: The expression plasmid and pGro7(groES-groEL) were co-transformed into Escherichia coli Rosetta(DE3) to obtain colonies for recombinant protein expression[34],[35]. The transformed cells were plated on Luria-Bertani (LB) agar plate containing 10 μg/ml chloramphenicol and 100 µg/ml ampicillin followed by overnight incubation at 37 °C to obtain colonies. A total of 100 ml of LB media containing 10 μg/ml chloramphenicol and 100 µg/ml ampicillin was inoculated with a single colony and incubated at 37 °C with vigorous shaking overnight. Then, 1 liter of LB media containing 0.5 mg/ml L-(+) arabinose, 2% D-(+)-Glucose, 10 μg/ml chloramphenicol and 100 µg/ml ampicillin was inoculated with 2% of the overnight culture and incubated at 37 °C with vigorous shaking until the O.D.600 nm reached 0.5-0.6. […]
Phospholipase A2 (PLA2) activity was determined using EnzChek™ Phospholipase A2 Assay Kit (Thermo Fisher Scientific, cat. E10217) according to the manufacturer’s instructions and as described before. […] Fluorescence emission was measured at 515 nm with excitation at 460 nm. […]

Structure (SMILES): CC[C@H](C)[C@H](NC(=O)[C@H](CC(C)C)NC(=O)[C@H](CC(=O)O)NC(=O)[C@H](Cc1ccc(O)cc1)NC(=O)[C@H](Cc1ccc(O)cc1)NC(=O)[C@H](CC(C)C)NC(=O)[C@H](C)NC(=O)[C@H](CCCNC(=N)N)NC(=O)[C@H](C)NC(=O)[C@@H](NC(=O)[C@@H](NC(=O)[C@H](CO)NC(=O)[C@H](CCC(=O)O)NC(=O)[C@@H](NC(=O)[C@H](CCCNC(=N)N)NC(=O)[C@@H](N)CCC(N)=O)[C@@H](C)O)[C@@H](C)CC)[C@@H](C)CC)C(=O)N[C@@H](CO)C(=O)O [H105A] (H-QRTESIIARALYYDLIS-OH)
- stimulation of PLA2 activity of PEDF-R: functional effectors of PEDF-R
